Measurements from patent US8049014B2, “Aminoquinoline derivatives, preparation method thereof and pharmaceutical composition comprising the same” (Korea Institute of Science and Technology, priority 2009, dated 2011).

Assays:
[1] = system: A375 melanoma tumor cells; assay: Anti-proliferative effect on melanoma tumor cells (MTT reduction assay); format: cell-based
Method: (§1) 10% of fetal bovine serum (FBS) and 1% of penicillin/streptomycin were put into a Dulbecco's Modified Eagle (DMEM) medium, and A375P tumor cells obtained from ATCC was incubated in the above medium under a 5% CO2 atmosphere at 37° C. A375P cells were taken into 0.05% trypsin-0.02% ethylene-diamine tetraacetic acid (EDTA) and seeded it into wells of 96 well plate with 5×10^3 cells/well, and the viability of the cells was determined with a conventional [3-(4,5-dimethylthiazol-2-yl)-2,5-diphenyltetrazolium bromide, MTT] reduction assay. In the MTT efficacy experimentation, 15 μL of dye per well was put into the wells in accordance with the protocol of CellTiter 96® Assay (Promega), and then incubated for two hours, into which 100 μL of stop solution was added. The resultant was read after 24 hours. After one day of the plating, the obtained material was treated with a compound of the present invention. When it was treated with the compound, 10 mM of stock solution was prepared, and gradually diluted to one-third in dimethyl sulfoxide (DMSO). A test compound plate was prepared with 12 points, into which 0.5 μL was put (final concentration was DMSO 0.5%). Absorbance was read at a wavelength of 590 nm using EnVision 2103 (Perkin Elmer Boston, Mass., US), and GI50 values were calculated using GraphPad Prism 4.0 software.
(§2) GI50 values indicating inhibition of the compounds according to the examples of the present invention and control substances, on the proliferation of A375 melanoma tumor cells and HS27 fibroblasts. Sorafenib (BAY43-9006, Nexavar) which has been known as a substance having a good anti-proliferative effect on the melanoma tumor cells was used as a control substance.

[2] = system: HS27 fibroblasts; assay: Inhibition of proliferation of HS27 fibroblasts (selectivity, MTT reduction assay); format: cell-based; conditions: Homo sapiens
Method: as §1, §2

[3] = Homo sapiens, A-375, A375 melanoma tumor cells

| GI50 ([1]; A375 melanoma tumor cells) | GI50 [1, 3] | Compound | GI50 [2] |
| --- | --- | --- | --- |
| – | 5.69 µM | Nc1cccc2c(Oc3ccc(NC(=O)c4ccc(Cl)c(C(F)(F)F)c4)cc3)ccnc12 [Compound 1b, N-[4-(8-aminoquinolin-4-yloxy)phenyl]-4-chloro-3-trifluoromethylbenzamide] | 7.63 µM |
| – | 3.49 µM | CC(=O)Nc1cccc2c(Oc3cccc(NC(=O)c4ccc(Cl)c(C(F)(F)F)c4)c3)ccnc12 [Compound 1i, N-[3-(8-acetylaminoquinolin-4-yloxy)phenyl]-4-chloro-3-trifluoromethylbenzamide] | > 20 µM |
| 0.78 µM | 0.77 to 0.8 µM | O=C(Nc1cccc(Oc2ccnc3c(NC(=O)c4ccccc4)cccc23)c1)c1ccc(Cl)c(C(F)(F)F)c1 [Compound 1j, N-[3-(8-benzoylaminoquinolin-4-yloxy)phenyl]-4-chloro-3-trifluoromethylbenzamide] | > 20 µM |
| – | 4.19 µM | CC(=O)Nc1cccc2c(Oc3ccc(NC(=O)Nc4ccc(Cl)c(C(F)(F)F)c4)cc3)ccnc12 [Compound 1c, 1-[4-(8-acetylaminoquinolin-4-yloxy)phenyl]-3-(4-chloro-3-trifluoro-methylphenyl)urea] | 6.02 µM |
| – | 3.14 µM | CC(=O)Nc1cccc2c(Oc3ccc(NC(=O)c4ccc(Cl)c(C(F)(F)F)c4)cc3)ccnc12 [Compound 1d, N-[4-(8-acetylaminoquinolin-4-yloxy)phenyl]-4-chloro-3-trifluoromethylbenzamide] | 5.47 µM |
| – | 3.74 µM | Nc1cccc2c(Oc3ccc(NC(=O)Nc4ccc(Cl)c(C(F)(F)F)c4)cc3)ccnc12 [Compound 1a, 1-[4-(8-aminoquinolin-4-yloxy)phenyl]-3-(4-chloro-3-trifluoromethylphenyl)urea] | 6.71 µM |
| – | 2.56 µM | Nc1cccc2c(Oc3cccc(NC(=O)Nc4ccc(Cl)c(C(F)(F)F)c4)c3)ccnc12 [Compound 1f, 1-[3-(8-aminoquinolin-4-yloxy)phenyl]-3-(4-chloro-3-trifluoromethylphenyl)urea] | 10.4 µM |
| – | 5.58 µM | CNC(=O)c1cc(Oc2ccc(NC(=O)Nc3ccc(Cl)c(C(F)(F)F)c3)cc2)ccn1 [Sorafenib, reference compound] | 7.85 µM |
| – | > 20 µM | CC(=O)Nc1cccc2c(Oc3cc(NC(=O)c4cc(-n5cnc(C)c5)cc(C(F)(F)F)c4)ccc3C)ccnc12 [Compound 1p, N-[3-(8-acetylaminoquinolin-4-yloxy)-4-methylphenyl]-3-(4-methylimidazol-1-yl)-5-trifluoromethylbenzamide] | > 20 µM |

More lines, now with the values behind:

| Compound | GI50 ([1]; A375 melanoma tumor cells) | GI50 [1, 3] | GI50 [2] |
| --- | --- | --- | --- |
| O=C(Nc1ccc(Oc2ccnc3c(NC(=O)c4ccccc4)cccc23)cc1)c1ccc(Cl)c(C(F)(F)F)c1 [Compound 1e, N-[4-(8-benzoylaminoquinolin-4-yloxy)phenyl]-4-chloro-3-trifluoromethylbenzamide] | 0.8 µM | 0.77 to 0.8 µM | > 20 µM |
| CC(=O)Nc1cccc2c(Oc3cc(NC(=O)c4ccccc4Cl)ccc3C)ccnc12 [Compound 1q, N-[3-(8-acetylaminoquinolin-4-yloxy)-4-methylphenyl]-2-chlorobenzamide] | – | 2.12 µM | > 20 µM |
| CC(=O)Nc1cccc2c(Oc3cc(NC(=O)c4ccc(Cl)c(C(F)(F)F)c4)ccc3C)ccnc12 [Compound 1k, N-[3-(8-acetylaminoquinolin-4-yloxy)-4-methylphenyl]-4-chloro-3-trifluoromethylbenzamide] | – | 1.3 µM | > 20 µM |
| Cc1ccc(NC(=O)c2ccc(Cl)c(C(F)(F)F)c2)cc1Oc1ccnc2c(NC(=O)c3ccccc3)cccc12 [Compound 1s, N-[3-(8-benzoylaminoquinolin-4-yloxy)-4-methylphenyl]-4-chloro-3-trifluoromethylbenzamide] | – | 1.03 µM | > 20 µM |
| CC(=O)Nc1cccc2c(Oc3cccc(NC(=O)Nc4ccc(Cl)c(C(F)(F)F)c4)c3)ccnc12 [Compound 1h, 1-[3-(8-acetylaminoquinolin-4-yloxy)phenyl]-3-(4-chloro-3-trifluoromethylphenyl)urea] | – | 2.32 µM | 5.68 µM |
| CC(=O)Nc1cccc2c(Oc3cc(NC(=O)c4cc(N5CCC(O)CC5)cc(C(F)(F)F)c4)ccc3C)ccnc12 [Compound 1o, N-[3-(8-acetylaminoquinolin-4-yloxy)-4-methylphenyl]-3-(4-hydroxypiperidin-1-yl)-5-trifluoromethylbenzamide] | – | > 20 µM | > 20 µM |
| CC(=O)Nc1cccc2c(Oc3cc(NC(=O)c4cc(C)on4)ccc3C)ccnc12 [Compound 1r, N-[3-(8-acetylaminoquinolin-4-yloxy)-4-methylphenyl]-5-methylisoxazole-3-carboxylic acid amide] | – | > 20 µM | > 20 µM |
| CC(=O)Nc1cccc2c(Oc3cc(NC(=O)c4ccc([N+](=O)[O-])c(C(F)(F)F)c4)ccc3C)ccnc12 [Compound 1n, N-[3-(8-acetylaminoquinolin-4-yloxy)-4-methylphenyl]-4-nitro-3-trifluoromethylbenzamide] | 0.79 µM | 0.77 to 0.8 µM | > 20 µM |
| CC(=O)Nc1cccc2c(Oc3cc(NC(=O)c4cccc(C(F)(F)F)c4)ccc3C)ccnc12 [Compound 1l, N-[3-(8-acetylaminoquinolin-4-yloxy)-4-methylphenyl]-3-trifluoromethylbenzamide] | – | 1.28 µM | > 20 µM |
| CC(=O)Nc1cccc2c(Oc3cc(NC(=O)c4cc(C(F)(F)F)cc(C(F)(F)F)c4)ccc3C)ccnc12 [Compound 1m, N-[3-(8-acetylaminoquinolin-4-yloxy)-4-methylphenyl]-3,5-bistrifluoromethylbenzamide] | 0.77 µM | 0.77 to 0.8 µM | > 20 µM |
| Nc1cccc2c(Oc3cccc(NC(=O)c4ccc(Cl)c(C(F)(F)F)c4)c3)ccnc12 [Compound 1g, N-[3-(8-aminoquinolin-4-yloxy)phenyl]-4-chloro-3-trifluoromethylbenzamide] | – | 6.73 µM | > 20 µM |
